32 compounds from ChEMBL document CHEMBL1177664, “Development of tryptase inhibitors derived from thalidomide” (Bioorg Med Chem, 2010) can be followed below.

The species named for experiment [1] is Homo sapiens. Kind of experiment: Inhibition of human tryptase-beta at 30 uM after 5 mins by fluorimetric analysis.
A short description of experiment [2]: (§1) Inhibition of human tryptase-beta after 5 mins by fluorimetric analysis.
Experiment [3] is filed under the species Homo sapiens. Kind of experiment: Competitive inhibition of human tryptase-beta by Lineweaver-Burke plot analysis.
Experiment [4] is described as follows: Binding affinity to human tryptase-beta after 3 mins.
For experiment [5], the target named is Prothrombin (Bos taurus, UniProt P00735). Kind of experiment: Binding affinity to bovine thrombin after 3 mins.
Experiment [6] in a line: Binding affinity to bovine type 1 trypsin after 3 mins. On the set-up: species or system Bos taurus.
For experiment [7], the species on record is Homo sapiens. The experiment is described as §1.

Activity calls are given as the source filed them. No cut-off for these calls is given here.

As for `CN1C(=O)c2ccc(OC(=O)c3ccccc3N)cc2C1=O`, the inhibition entry in experiment [1] is “inactive”. This compound gave an IC50 in experiment [2] of 1500 nM. On to `CN1C(=O)c2ccc(OC(=O)Cc3ccc(N)cc3)cc2C1=O`, for which the inhibition entry in experiment [1] was “inactive”. The compound `COc1cc(N)ccc1CCC(=O)Oc1ccc2c(c1)C(=O)N(C)C2=O` came in with an IC50 in experiment [2] of 1800 nM.

For `COc1cccc(N2C(=O)c3ccc(OC(=O)CCc4ccc(N)cc4)cc3C2=O)c1`, the IC50 in experiment [2] amounted to 650 nM. As to `N#Cc1ccc(N2C(=O)c3ccc(OC(=O)CCc4ccc(N)cc4)cc3C2=O)cc1`, in experiment [2], inhibition was half-maximal at 340 nM (IC50). Further, in experiment [3], the inhibition entry is “Active”. Further, the values for the Ki in experiment [4], in experiment [5] and in experiment [6] were 190 nM, 8600 nM and 4300 nM, respectively. Taken in the same sequence, the figures for `CN1C(=O)c2ccc(OC(=O)CCc3ccc(N)nc3)cc2C1=O` were 400 nM, “Active”, 340 nM, 7000 nM and 2900 nM. For the compound `CN1C(=O)c2ccc(OC(=O)CCc3cccc(N)c3)cc2C1=O`, in experiment [1], the inhibition result was “inactive”. For `CC(C)(C)c1ccc(N2C(=O)c3ccc(OC(=O)CCc4ccc(N)cc4)cc3C2=O)cc1`, in experiment [1], the inhibition result was “inactive”. Regarding `Nc1ccc(CCC(=O)Oc2ccc3c(c2)C(=O)N(c2ccc(N)cc2)C3=O)cc1`, the IC50 in experiment [2] is 820 nM.

For the compound `COc1ccccc1N1C(=O)c2ccc(OC(=O)CCc3ccc(N)cc3)cc2C1=O`, the IC50 in experiment [2] came to 1100 nM.

In the case of `CN1C(=O)c2ccc(OC(=O)CCc3ccncc3)cc2C1=O`, the IC50 in experiment [2] is over 30000 nM. On the same count and under the same terms, then `CC(C)N1C(=O)c2ccc(OC(=O)CCc3ccc(N)cc3)cc2C1=O`, with 1200 nM.

For `CN1C(=O)c2ccc(OC(=O)CCc3ccc(N)cc3)cc2C1=O`, the inhibition in experiment [1] was 98%. Moreover, the IC50 in experiment [2] was determined as 1500 nM. Also, the Ki in experiment [4] was 1700 nM; in experiment [5], 15000 nM; in experiment [6] it was 13000 nM. As to `COc1ccc(CCC(=O)Oc2ccc3c(c2)C(=O)N(C)C3=O)cc1`, the inhibition entry in experiment [1] was “inactive”. In turn, `COc1cc(CCC(=O)Oc2ccc3c(c2)C(=O)N(C)C3=O)ccc1N` gave an IC50 in experiment [2] of over 30000 nM. For `CN1C(=O)c2ccc(OC(=O)CCCc3ccc(N)cc3)cc2C1=O`, the inhibition result in experiment [1] is “inactive”.

In experiment [2], `CN1C(=O)c2ccc(OC(=O)CCc3cnc(N)nc3)cc2C1=O` registered an IC50 of 7800 nM. With `CCCN1C(=O)c2ccc(OC(=O)CCc3ccc(N)cc3)cc2C1=O`, half-maximal inhibition in experiment [2] (IC50) was put at 1200 nM. Regarding `Nc1ccc(CCC(=O)Oc2ccc3c(c2)C(=O)N(c2ccc(C(F)(F)F)cc2)C3=O)cc1`, the inhibition result in experiment [1] is “inactive”. Regarding `N#Cc1ccc(N2C(=O)c3ccc(OC(=O)CCc4ccc(N)nc4)cc3C2=O)cc1`, it took 78 nM to reach half-maximal inhibition in experiment [2] (IC50). In experiment [7], the inhibition entry was “Dose-dependent effect”. Further, the inhibition result in experiment [3] was “Active”. Also, the figures for the Ki in experiment [4], in experiment [5] and in experiment [6] were 44 nM, 16000 nM and 880 nM, respectively.

As for `CCCCCCN1C(=O)c2ccc(OC(=O)CCc3ccc(N)cc3)cc2C1=O`, half-maximal inhibition in experiment [2] (IC50) required 1500 nM.

With `Nc1ccc(CCC(=O)Oc2ccc3c(c2)C(=O)N(C2CCCCC2)C3=O)cc1`, inhibition in experiment [2] was half-maximal at 1200 nM (IC50). Still for that read-out and setting: then `Cc1ccc(N2C(=O)c3ccc(OC(=O)CCc4ccc(N)cc4)cc3C2=O)cc1`, with 1200 nM.

`CN1C(=O)c2ccc(OC(=O)Cc3cccc(N)c3)cc2C1=O` showed an inhibition in experiment [1] of 46%. In experiment [2], `Nc1ccc(CCC(=O)Oc2ccc3c(c2)C(=O)N(c2ccccc2)C3=O)cc1` showed an IC50 of 1300 nM. `CN1C(=O)c2ccc(OC(=O)c3ccc(N)cc3)cc2C1=O`: in experiment [1], the inhibition entry is “inactive”. `CN1C(=O)c2ccc(OC(=O)CCc3ccccc3)cc2C1=O`: the inhibition entry in experiment [1] was “inactive”. In experiment [2], `Nc1ccc(CCC(=O)Oc2ccc3c(c2)C(=O)N(c2ccc(F)cc2)C3=O)cc1` came in with an IC50 of 1700 nM. With `Nc1ccc(CCC(=O)Oc2ccccc2)cc1`, in experiment [1], the inhibition result was “inactive”. For `COc1ccc(N2C(=O)c3ccc(OC(=O)CCc4ccc(N)cc4)cc3C2=O)cc1`, half-maximal inhibition in experiment [2] (IC50) required 390 nM. For the compound `CN1C(=O)c2ccc(OC(=O)c3cccc(N)c3)cc2C1=O`, the inhibition entry in experiment [1] was “inactive”. As to `CN1C(=O)c2ccc(OC(=O)CCc3ccc(N(C)C)cc3)cc2C1=O`, the inhibition entry in experiment [1] is “inactive”.
